Reference: ChEMBL document CHEMBL5055666, “Tyrosine-Derived Novel Benzoxazine Active in a Rat Syngenic Mammary Tumor Model of Breast Cancer” (J Med Chem, 2021)
Active and inactive are the calls of the source. No cut-off for these calls is given here.

Tests used:
[1] = AUC(0 to infinity) in Sprague-Dawley rat at 0.5 mg/kg, iv measured upto 24 hrs; assay type: ADME, organism-based; parameters: time < 24 hrs, dose 0.5 mg/kg, route iv; conditions: in vivo
[2] = Drug release in tris buffer pH 7.4 after 10 min by membrane dialysis method; assay type: physicochemical; conditions: pH 7.4, 10 min
MCF7 [3] = experiment: Induction of intracellular ROS generation in human MCF7 cells at 0.125 to 1 uM incubated for 24 hrs by DCFH-DA staining-based flow cytometric analysis; assay type: functional, cell-based; conditions: dose 0.125-1 µM
Rattus norvegicus [4] = experiment: Toxicity in Sprague-Dawley rat inoculated with rat LA7 cells assessed as change in organ weight at 5 to 20 mg/kg administered daily for 21 days; assay type: organism-based; conditions: la7, 504 h, dose 5-20 mg/kg, time 21 day
MCF7 [5] = experiment: Induction of apoptosis in human MCF7 cells assessed as nuclear blabbing after 24 hrs by DAPI staining based fluorescent microscopic analysis; assay type: functional, cell-based; conditions: dose 0.125-1 µM
MDA-MB-231 [6] = experiment: Induction of apoptosis in human MDA-MB-231 cells assessed as nuclear blabbing after 24 hrs by DAPI staining based fluorescent microscopic analysis; assay type: functional, cell-based; conditions: dose 0.125-1 µM
[7] = Mean residence time in Sprague-Dawley rat at 0.5 mg/kg, iv measured upto 24 hrs; assay type: ADME, organism-based; conditions: in vivo
LA7 [8] = experiment: Antiproliferative activity against rat LA7 cells assessed as inhibition of cell growth incubated for 24 hrs by MTT assay; assay type: functional, cell-based; conditions: LA7, 24 h
[9] = Cmax in Sprague-Dawley rat at 5 mg/kg, po measured upto 24 hrs; assay type: ADME, organism-based; parameters: time < 24 hrs, dose 5 mg/kg, route po; conditions: in vivo
[10] = Apparent oral volume of distribution in Sprague-Dawley rat at 5 mg/kg, po measured upto 24 hrs; assay type: ADME, organism-based; conditions: in vivo
MDA-MB-231 [11] = experiment: Induction of intracellular ROS generation in human MDA-MB-231 cells at 0.125 to 1 uM incubated for 24 hrs by DCFH-DA staining-based flow cytometric analysis; assay type: functional, cell-based; conditions: dose 0.125-1 µM
MDA-MB-231 [12] = experiment: Antiproliferative activity against human MDA-MB-231 cells assessed as inhibition of cell growth incubated for 24 hrs by MTT assay; assay type: functional, cell-based; conditions: MDA-MB-231, 24 h
MCF7 [13] = experiment: Downregulation of ERalpha expression in human MCF7 cells after 24 hrs by immunoblot analysis; assay type: functional, cell-based
[14] = Cmax in Sprague-Dawley rat at 0.5 mg/kg, iv measured upto 24 hrs; assay type: ADME, organism-based; parameters: time < 24 hrs, dose 0.5 mg/kg, route iv; conditions: in vivo
MCF7 [15] = experiment: Induction of apoptosis in human MCF7 cells assessed as increase in total apoptotic population at 0.125 to 1 uM after 24 to 48 hrs by Annexin V-FITC/propidium iodide staining based flow cytometric analysis; assay type: functional, cell-based; conditions: dose 0.125-1 µM, time 24-48 hrs
MCF-10A [16] = experiment: Antiproliferative activity against human MCF-10A cells assessed as inhibition of cell growth incubated for 72 hrs by MTT assay; assay type: cell-based
[17] = Half life in Sprague-Dawley rat at 0.5 mg/kg, iv measured upto 24 hrs; assay type: ADME, organism-based; conditions: in vivo
[18] = Mean residence time in Sprague-Dawley rat at 5 mg/kg, po measured upto 24 hrs; assay type: ADME, organism-based; conditions: in vivo
MDA-MB-231 [19] = experiment: Antiproliferative activity against human MDA-MB-231 cells assessed as inhibition of cell growth incubated for 72 hrs by MTT assay; assay type: functional, cell-based; conditions: MDA-MB-231, 72 h
MCF7 [20] = experiment: Upregulation of ERbeta expression in human MCF7 cells after 24 hrs by immunoblot analysis; assay type: functional, cell-based; conditions: dose 500-5 µM
[21] = Apparent oral volume of distribution in Sprague-Dawley rat at 0.5 mg/kg, iv measured upto 24 hrs; assay type: ADME, organism-based; conditions: in vivo
MCF7 [22] = experiment: Disruption of mitochondrial membrane integrity in human MCF7 cells assessed as reduction in mitochondrial membrane potential at 0.125 to 1 uM by JC-1 staining based flow cytometry analysis; assay type: functional, cell-based; conditions: dose 0.125-1 µM
MDA-MB-231 [23] = experiment: Induction of cell damage in human MDA-MB-231 cells assessed as increase in LDH release at 0.125 to 100 uM; assay type: functional, cell-based; conditions: dose 0.125-100 µM
MCF7 [24] = experiment: Induction of cell cycle arrest in human MCF7 cells assessed as increase in sub-diploid population at 0.125 to 1 uM after 24 to 48 hrs by propidium iodide staining based flow cytometric analysis; assay type: functional; conditions: dose 0.125-1 µM, time 24-48 hrs
MDA-MB-231 [25] = experiment: Induction of apoptosis in human MDA-MB-231 cells assessed as increase in total apoptotic population at 0.125 to 1 uM after 24 to 48 hrs by Annexin V-FITC/propidium iodide staining based flow cytometric analysis; assay type: functional, cell-based; conditions: dose 0.125-1 µM, time 24-48 hrs
[26] = Apparent oral clearance in Sprague-Dawley rat at 5 mg/kg, po measured upto 24 hrs; assay type: ADME, organism-based; conditions: in vivo
MDA-MB-231 [27] = experiment: Induction of cell cycle arrest in human MDA-MB-231 cells assessed as increase in sub-diploid population at 0.125 to 1 uM after 24 to 48 hrs by propidium iodide staining based flow cytometric analysis; assay type: functional; conditions: dose 0.125-1 µM, time 24-48 hrs
MCF7 [28] = experiment: Antiproliferative activity against human MCF7 cells assessed as inhibition of cell growth incubated for 48 hrs by MTT assay; assay type: functional, cell-based; conditions: MCF7, 48 h
LA7 [29] = experiment: Antiproliferative activity against rat LA7 cells assessed as inhibition of cell growth incubated for 48 hrs by MTT assay; assay type: functional, cell-based; conditions: LA7, 48 h
MCF7 [30] = experiment: Antiproliferative activity against human MCF7 cells assessed as inhibition of cell growth incubated for 72 hrs by MTT assay; assay type: functional, cell-based; conditions: MCF7, 72 h
[31] = Induction of cell damage in human HEK293 cells assessed as increase in LDH release at > 20 uM; assay type: cell-based; conditions: hek293, 20 µM
[32] = Apparent oral clearance in Sprague-Dawley rat at 0.5 mg/kg, iv measured upto 24 hrs; assay type: ADME, organism-based; conditions: in vivo
LA7 [33] = experiment: Antiproliferative activity against rat LA7 cells assessed as inhibition of cell growth incubated for 72 hrs by MTT assay; assay type: functional, cell-based; conditions: LA7, 72 h
MDA-MB-231 [34] = experiment: Induction of apoptosis in human MDA-MB-231 cells assessed as nuclear condensation after 24 hrs by DAPI staining based fluorescent microscopic analysis; assay type: functional, cell-based; conditions: dose 0.125-1 µM
[35] = AUC(0 to infinity) in Sprague-Dawley rat at 5 mg/kg, po measured upto 24 hrs; assay type: ADME, organism-based; parameters: dose 5 mg/kg, time < 24 hrs, route po; conditions: in vivo
LA7 [36] = experiment: Antitumor activity against rat LA7 cells inoculated in Sprague-Dawley rat assessed as reduction in formation of neoplastic lesions in lungs at 5 to 20 mg/kg administered daily for 21 days; assay type: functional, organism-based; conditions: dose 5-20 mg/kg, time 21.0 day
LA7 [37] = experiment: Antitumor activity against rat LA7 cells inoculated in Sprague-Dawley rat assessed as inhibition of tumor growth at 5 to 20 mg/kg administered daily for 21 days; assay type: functional, organism-based; conditions: dose 5-20 mg/kg, time 21.0 day
MCF7 [38] = experiment: Induction of cell damage in human MCF7 cells assessed as increase in LDH release at 0.125 to 100 uM; assay type: functional, cell-based; conditions: dose 0.125-100 µM
MCF7 [39] = experiment: Antiproliferative activity against human MCF7 cells assessed as inhibition of cell growth incubated for 24 hrs by MTT assay; assay type: functional, cell-based; conditions: MCF7, 24 h
MDA-MB-231 [40] = experiment: Antiproliferative activity against human MDA-MB-231 cells assessed as inhibition of cell growth incubated for 48 hrs by MTT assay; assay type: functional, cell-based; conditions: MDA-MB-231, 48 h
[41] = Tmax in Sprague-Dawley rat at 5 mg/kg, po measured upto 24 hrs; assay type: ADME, organism-based; conditions: in vivo
MCF-10A [42] = experiment: Antiproliferative activity against human MCF-10A cells assessed as inhibition of cell growth incubated for 24 hrs by MTT assay; assay type: cell-based
Rattus norvegicus [43] = experiment: Toxicity in Sprague-Dawley rat inoculated with rat LA7 cells assessed as increase in uterine tissue at 5 to 20 mg/kg administered daily for 21 days; assay type: organism-based; conditions: la7, 504 h, dose 5-20 mg/kg, time 21 day
MCF7 [44] = experiment: Induction of apoptosis in human MCF7 cells assessed as nuclear condensation after 24 hrs by DAPI staining based fluorescent microscopic analysis; assay type: functional, cell-based; conditions: dose 0.125-1 µM
MDA-MB-231 [45] = experiment: Disruption of mitochondrial membrane integrity in human MDA-MB-231 cells assessed as reduction in mitochondrial membrane potential at 0.125 to 1 uM by JC-1 staining based flow cytometry analysis; assay type: functional, cell-based; conditions: dose 0.125-1 µM
[46] = Tmax in Sprague-Dawley rat at 0.5 mg/kg, iv measured upto 24 hrs; assay type: ADME, organism-based; conditions: in vivo
[47] = Half life in Sprague-Dawley rat at 5 mg/kg, po measured upto 24 hrs; assay type: ADME, organism-based; conditions: in vivo
Rattus norvegicus [48] = experiment: Toxicity in Sprague-Dawley rat inoculated with rat LA7 cells assessed as mortality at 5 to 20 mg/kg administered daily for 21 days; assay type: organism-based; conditions: la7, 504 h, dose 5-20 mg/kg, time 21 day

## COc1ccc(C[C@H]2COc3ccccc3N2Cc2ccc(OCCN3CCCC3)cc2)cc1
[1]
  AUC(0-inf): 124 ng·h/mL
[2]
  Drug transport: 90%
MCF7 [3]
  Activity: Active
Rattus norvegicus [4]
  Activity: Non-Toxic
MCF7 [5]
  Activity: Dose-dependent effect
MDA-MB-231 [6]
  Activity: Dose-dependent effect
[7]
  MRT: 4.66 h
LA7 [8]
  IC50: 660 nM
[9]
  Cmax: 43.2 ng/mL
[10]
  Vd/F: 140 L/kg
MDA-MB-231 [11]
  Activity: Active
MDA-MB-231 [12]
  IC50: 650 nM
MCF7 [13]
  Activity: Dose-dependent effect
[14]
  Cmax: 49.6 ng/mL
MCF7 [15]
  Activity: Active
MCF-10A [16]
  IC50: > 18000 nM
[17]
  half-life: 3.42 h
[18]
  MRT: 16.1 h
MDA-MB-231 [19]
  IC50: 700 nM
MCF7 [20]
  Activity: Dose-dependent effect
[21]
  Vd/F: 19.9 L/kg
MCF7 [22]
  Activity: Active
MDA-MB-231 [23]
  Activity: Active
MCF7 [24]
  Activity: Dose-dependent effect
MDA-MB-231 [25]
  Activity: Active
[26]
  CL/F: 176 mL/min/kg
MDA-MB-231 [27]
  Activity: Dose-dependent effect
MCF7 [28]
  IC50: 300 nM
LA7 [29]
  IC50: 240 nM
MCF7 [30]
  IC50: 250 nM
[31]
  Activity: Toxic
[32]
  CL/F: 68.8 mL/min/kg
LA7 [33]
  IC50: 190 nM
MDA-MB-231 [34]
  Activity: Dose-dependent effect
[35]
  AUC(0-inf): 506 ng·h/mL
LA7 [36]
  Activity: Active
LA7 [37]
  Activity: Active
MCF7 [38]
  Activity: Active
MCF7 [39]
  IC50: 200 nM
MDA-MB-231 [40]
  IC50: 700 nM
[41]
  Tmax: 0.25 h
MCF-10A [42]
  IC50: > 25000 nM
Rattus norvegicus [43]
  Activity: Non-Toxic
MCF7 [44]
  Activity: Dose-dependent effect
MDA-MB-231 [45]
  Activity: Active
[46]
  Tmax: 0.83 h
[47]
  half-life: 8.97 h
Rattus norvegicus [48]
  Activity: Non-Toxic
